Results taken from patent publication US8530508B2, “Thrombopoietin receptor agonist (TpoRA) kills acute human myeloid leukemia cells” (GlaxoSmithKline LLC, priority 2007, dated 2013).

What was measured:
[1] = test system: STAT5, ERK, p70S6, S6 ribosomal protein in human progenitor cells CD34+; test: Western blot analysis of kinase phosphorylation in CD34+ cells; type: cell-based; details: rhTPO 2.8 μM or Compound A 5 μM
Method: (§1) Controls and cells stimulated with rhTPO or Compound A were washed twice in PBS, then pelleted. The pellet was dissolved in triple-lysis buffer comprised of 50 mM TRIS, 150 mM NaCl, 0.02% sodium azide, 0.1% sodium dodecyl sulphate (SDS) and 1% Igepal (Sigma, St. Louis, Mo.), and then incubated for 30 min on ice with vortexing every 10 min. The lysate was then spun at maximum speed in a microcentrifuge at 4° C. for 10 min. The extracted cell supernatant was used for Western-blot analysis.
(§2) Protein concentration was determined by a Bradford protein assay (Bio-Rad, Hercules, Calif.). A total of 150 μg protein extract was resolved on a 10% polyacrylamide gel (150V, 60 min.) then transferred to a poly vinylidene fluoride (PVDF) membrane (25V, 60 min). Condensed milk (5%) was used as a blocking solution. The membrane was incubated overnight at 4° C. with primary antibody at a 1:1000 dilution. After incubation, the membrane was washed three times in TBS-T buffer and probed with secondary HRP-conjugated antibody (Amersham Biosciences; Piscataway, N.J.) at dilution 1:1000 for 2 hour at room temperature. All antibodies were purchased from Cell Signaling Technology (Danvers, Mass.).
The effect of Compound A on phosphorylation of kinases known to be important in the Tpo signaling pathway was examined. Kinases evaluated include STAT5, ERK, p70S6, and ribosomal kinase S6. […] The same experiment was performed on human progenitor cells CD34+, which are stimulated by Compound A to differentiate into the megakaryocytes.

[2] = test system: p70S6 kinase and ribosomal kinase S6 in primary AML cells; test: Western blot of p70S6 and S6 kinase phosphorylation in primary AML cells; type: cell-based, human; details: primary AML samples, 3 hours; SB559457 5 μM, Tpo 2.86 μM
Method: as §1, §2
In an effort to establish a correlation between cell signaling and array data, phosphorylation of kinases involved in Tpo signaling pathway in primary leukemia cells was examined. […]

[3] = test system: CD34+ cells; test: Liquid culture of human progenitor cells (polyploidization, CD41/CD61 expression); type: cell-based; details: CD34+ cells in cytokines, 7-10 days
Method: Normal human progenitor cells (CD34+) were used to evaluate capability of Compound A to stimulate proliferation and differentiation of megakaryocytes. CD34+ cells were plated in fibrin clots and cultured for 10 days, after which time colonies were fixed and stained with antibody specific for megakaryocytic marker CD41. […] CD34+ cells were incubated in cytokines with rhTPO or Compound A for periods of 7-10 days, after which time cells in culture were examined for degree of polyploidization, and expression of megakaryocyte lineage markers CD41 and CD61.

[4] = test system: STAT5, ERK, p70S6, ribosomal kinase S6 in N2C-TPO cells; test: Western blot analysis of kinase phosphorylation in N2C-TPO cells; type: cell-based; details: 10 or 30 minutes
Method: as §1, §2
The effect of Compound A on phosphorylation of kinases known to be important in the Tpo signaling pathway was examined. Kinases evaluated include STAT5, ERK, p70S6, and ribosomal kinase S6. […]

[5] = test system: cells obtained from AML patients; test: Rescue proliferation assay: rhTPO plus Compound A on AML cells; type: cell-based, human
Method: Proliferation assays were performed on cells obtained from 6 AML patients. In some experiments, cells were first exposed to Compound A and then stimulated with rhTPO five minutes later. To avoid the possibility of all receptors being occupied by Compound A and therefore preventing rhTPO from binding, other experiments were also performed by first stimulating the cells with rhTPO followed by exposure to Compound A 5 minutes later.

[6] = test system: primary cells from ALL patient 710; test: Annexin V / propidium iodide apoptosis assay, primary ALL cells; type: cell-based, human; details: ALL patient 710, 72 hours
Excerpt: (§3) Annexin-V is a phospholipid binding protein with a high affinity for phosphatidylserine (PS). Annexin V will not bind normal, intact cells, but necrotic cells are leaky enough to give Annexin V access to inner membrane PS. Propidium iodide stains DNA. The assay therefore identifies cells undergoing apoptosis.
(§4) Primary cells were isolated from either an AML (patient 774; top row) or ALL (patient 710; bottom row) patient. The cells were then exposed to either control solution (left pair of panels), rhTpo+DMSO (middle pair of panels), or SB559457 (right pair of panels) for 72 hours.

[7] = test system: STAT5, ERK, p70S6 kinases and S6 ribosomal protein in N2C-TPO cells; test: Rescue of kinase phosphorylation in N2C-TPO cells (rhTPO plus Compound A); type: cell-based; details: rhTPO first then Compound A, or the reverse
Method: as §1, §2
In an effort to address these possibilities, similar rescue experiments were performed on N2C-TPO cells while evaluating phosphorylation of kinases involved in TPO pathway.

[8] = test system: N2C-TPO cells; test: Proliferation of TPO dependent cell line N2C-TPO; type: cell-based
Method: N2C-TPO cells were derived by culture of a megakaryblastic cell line in rhTpo for 10 weeks and provided by Glaxo SmithKline Pharmaceuticals (Collegeville, Pa.). N2C-TPO cells were cultured in RPMI (Invitrogen, Carlsbad, Calif.) medium supplemented with 10% Animal Serum Complex—Fetalplex (Gemini Bio-Products, West Sacramento, Calif.), 0.5% Penicillin/Streptomycin (Invitrogen; Carlsbad, Calif.) and 20 ng/ml rhTPO.
In order to determine if Compound A has the ability to function as a thrombopoietin receptor (TpoR) agonist and stimulate proliferation and differentiation of human megakaryocytes, a number of cell culture experiments were performed using the Tpo dependent cell line (N2C-TPO) as well as normal human CD34+ cells. […] Consequently the 5 μM dose was used in further experiments where properties of rhTPO versus Compound A were directly compared.

[9] = test system: GAPDH and Redd1 mRNA in primary AML cells; test: Quantitative real time PCR of GAPDH and Redd1 in primary AML cells; type: cell-based, human; details: primary AML samples, 6 hours, QRT-PCR
[10] = test system: primary cells from patients with acute lymphocytic leukemia (ALL); test: Proliferation of primary ALL cells; type: cell-based, human; details: ALL patient samples
Method: (§5) Human primary leukemia cells were obtained from Stem Cell and Leukemia Core at the University of Pennsylvania. Cells were cultured in EGM-2 (Endothelial Cell Medium-2, Cambrex; East Rutherford, N.J.). All cells were cultured in humidified incubator at 37° C. and 5% CO2.
(§6) Samples were obtained from 18 patients with acute myelogenous leukemia (AML), 7 patients with acute lymphocytic leukemia (ALL) and 3 patients with chronic myelogenous leukemia (CML). In 17 out of 18 tested AML samples, Compound A inhibited cell proliferation 70-90% when compared to untreated controls or cells cultured with rhTPO (FIG. 2A).

[11] = test system: primary cells from AML patient 774; test: Annexin V / propidium iodide apoptosis assay, primary AML cells; type: cell-based, human; details: AML patient 774, 72 hours; vs control and Tpo+DMSO
Excerpt: as §3, §4

[12] = test system: primary cells from patients with chronic myelogenous leukemia (CML); test: Proliferation of primary CML cells; type: cell-based, human; details: CML patient samples
Method: as §5, §6

[13] = test system: primary leukemia cells from patients with acute myelogenous leukemia (AML); test: Proliferation of primary AML cells; type: cell-based, human
Method: as §5, §6
Further the effect of various doses of Compound A (1 μM, 2.5 μM and 5 μM) on AML samples was examined. This experiment was performed on 6 different samples. […] In the remaining 3 samples, doses of 1 μM and 2.5 μM Compound A had no effect on cell proliferation and survival.

[14] = test system: human CD34+ cells; test: Megakaryocyte colony forming assay; type: cell-based; details: Compound A 5 μM vs rhTPO 100 ng/ml; fibrin clots, 10 days, CD41 stain
Method: Normal human progenitor cells were plated in fibrinogen clots at a density of 5000 CD34+ cells per ml. Fibrinogen clots were prepared as follow: cells were re-suspended in IMDM medium supplemented with sodium bicarbonate (3 mg/ml); 3-mercapto-1-2propanediol (0.002%); transferring (300 μg/ml); CaCl2(37 μg/ml); fatty acid free, deionized BSA (10%); insulin (20 μg/ml); cholesterol (5.6 μg/ml) cytokines: IL-3 (10 ng/ml), SCF (10 ng/ml) and rhTPO (100 ng/ml equal 2.8 μM) or Compound A (5 μM). Then clotting mix containing fibrinogen (0.2%) and thrombin (0.2 u/ml). Cells were plated on 35 mm culture dishes and cultured in humidified incubator at 37° C. and 5% CO2. After 10 days, colonies were fixed and stained for megakaryocyte marker CD41a with fluorescently labeled antibody. Megakaryocyte colonies were counted using inverted fluorescent microscope.
Normal human progenitor cells (CD34+) were used to evaluate capability of Compound A to stimulate proliferation and differentiation of megakaryocytes. CD34+ cells were plated in fibrin clots and cultured for 10 days, after which time colonies were fixed and stained with antibody specific for megakaryocytic marker CD41. […]

rhTPO: Full length recombinant human thrombopoietin (rhTPO) obtained from R&D Systems
ERK, p70S6 and S6 ribosomal protein phosphorylation [1]: activation
phosphorylation of STAT5 [1]: stimulated phosphorylation of STAT5
phosphorylation of p70S6 kinase at Thr421/Ser424 and ribosomal kinase S6 [2]: none or very little phosphorylation
cells with greater than 4N DNA content [3]: 8%
phosphorylation of STAT5, ERK, p70S6 and ribosomal kinase S6 [4]: high phosphorylation level

CC1=NN(c2ccc(C)c(C)c2)C(=O)/C1=N\Nc1cc(F)cc(-c2cccc(C(=O)O)c2)c1O [Compound A, 3′-{N′-[1-(3,4-dimethylphenyl)-3-methyl-5-oxo-1,5-dihydropyrazol-4-ylidene]hydrazine}-5′-fluoro-2′-hydroxybiphenyl-3-carboxylic acid]
ERK, p70S6 and S6 ribosomal protein phosphorylation [1]: activation
phosphorylation of STAT5 [1]: only cells exposed to rhTPO
rescue of AML cell survival by rhTPO ([5]; samples 794 and 332, rhTPO added with Compound A): adding rhTPO did attenuate the Compound A effect
rescue of AML cell survival by rhTPO ([5]; samples 857, 774, 759, 342, rhTPO added 5 minutes before or after Compound A): not rescued
cellular apoptosis [6]: No significant increases in cellular apoptosis
phosphorylation of STAT5, ERK, p70S6 kinases and S6 ribosomal protein with rhTPO plus Compound A [7]: rescue of phosphorylation
concentration of maximal effects on cell proliferation [8]: 5 to 10 µM
phosphorylation of p70S6 kinase at Thr421/Ser424 and ribosomal kinase S6 [2]: high phosphorylation
expression of GAPDH relative to cells treated with rhTpo [9]: at least two times higher
effect on cell proliferation / growth or viability [10]: No significant effects
Annexin V and PI positive cells (apoptosis) [11]: increase in Annexin V and PI positive cells
cells expressing megakaryocyte markers CD41 and CD61 [3]: 35%
cells with greater than 4N DNA content [3]: 14%
effect on cell proliferation / growth or viability [12]: No significant effects
phosphorylation of STAT5, ERK, p70S6 and ribosomal kinase S6 [4]: none of those kineses were activated
effect on cell proliferation and survival ([13]; 1 μM and 2.5 μM, remaining 3 of 6 AML samples): no effect
leukemia cell growth and proliferation ([13]; 5 μM, remaining 3 of 6 AML samples): inhibited leukemia cell growth and proliferation
effect on cell proliferation ([13]; 1 and 2.5 μM, 3 of 6 AML samples): had an effect on cell proliferation
inhibition of cell proliferation ([13]; 17 out of 18 AML samples, vs untreated controls or cells cultured with rhTPO): 70-90%
number of megakaryocyte colonies compared to rhTPO [14]: slightly lower
